# Assay results published in patent US20080051387A1, “TETRAHYDROPYRIDO[3,4-D]PYRIMIDINES AND RELATED ANALOGUES” (priority 2006, published 2008).
# Target: T1, chimeric human H3 receptor (Homo sapiens, UniProt Q9Y5N1)
# T1 construct: rat Galpha-i2 (Gnai2, rat); made in house; host or cells: Sf9 insect cells (baculovirus); P2 membranes
# Assay: Chimeric human H3 receptor screening GTP binding assay (inhibition of histamine-stimulated GTP-gamma35S binding, Example 8)
# Assay type: biochemical
# Details: 1 h; assay described in Example 8; symbol "!" in column headed Ki; read-out: Ki ("!": percent inhibition of agonist-induced GTP-gammaS binding to H3)
# Experimental: This Example illustrates a representative screening assay for evaluating inhibition of histamine-stimulated GTP-gamma^35S binding. Such GTP binding activity can be used to identify H3 antagonists and inverse agonists. A compound analyzed in this assay is referred to herein as a “test compound,” and the initial identification of antagonists and inverse agonists is performed using a test compound concentration of 4 μM.
# Four independent baculoviral stocks (one directing the expression of the chimeric human H3 receptor and three directing the expression of each of the three subunits of a heterotrimeric G-protein) are used to infect a culture of Sƒ9 cells as described above. P2 membranes are prepared as described above, and are resuspended by Dounce homogenization (tight pestle) in GTP binding assay buffer (50 mM Tris pH 7.4, 120 mM NaCl, 5 mM MgCl2, 2 mM EGTA, 1 mg/ml BSA, 0.2 mg/ml bacitracin, 0.02 mg/ml aprotinin, 0.01 mg/ml saponin, 10 μM GDP) and added to assay tubes at a concentration of 35 μg protein/reaction tube. Non-radiolabeled test compounds are added to separate reactions at a concentration of 4 μM along with 1 μM histamine (agonist). Reactions are initiated by the addition of 125 pM GTP-gamma^35S with a final assay volume of 0.20 ml.
# After a 60-min incubation at room temperature, reactions are terminated by vacuum filtration over GF/C filters (pre-soaked in 50 mM Tris pH 7.4, 120 mM NaCl plus 0.1% BSA) followed by washing with ice-cold buffer (50 mM Tris pH 7.4, 120 mM NaCl). The amount of receptor-bound (and thereby membrane-bound) GTP-gamma^35S is determined by measuring the bound radioactivity, preferably by liquid scintillation spectrometry of the washed filters. Non-specific binding is determined using 10 uM GTP-gammaS and typically represents less than 5 percent of total binding. After subtraction of non-specific binding, data is expressed as percent inhibition of 1 μM histamine signal.
# Neutral antagonists are those test compounds that reduce the histamine-stimulated GTP binding activity towards, but not below, baseline levels. In contrast, in the absence of added histamine, inverse agonists reduce the GTP binding activity of the receptor-containing membranes below baseline. Any test compound that elevates GTP binding activity above baseline in the absence of added histamine in this assay is defined as having agonist activity.
# T1 sequence (Q9Y5N1 with tags, fused parts or gaps): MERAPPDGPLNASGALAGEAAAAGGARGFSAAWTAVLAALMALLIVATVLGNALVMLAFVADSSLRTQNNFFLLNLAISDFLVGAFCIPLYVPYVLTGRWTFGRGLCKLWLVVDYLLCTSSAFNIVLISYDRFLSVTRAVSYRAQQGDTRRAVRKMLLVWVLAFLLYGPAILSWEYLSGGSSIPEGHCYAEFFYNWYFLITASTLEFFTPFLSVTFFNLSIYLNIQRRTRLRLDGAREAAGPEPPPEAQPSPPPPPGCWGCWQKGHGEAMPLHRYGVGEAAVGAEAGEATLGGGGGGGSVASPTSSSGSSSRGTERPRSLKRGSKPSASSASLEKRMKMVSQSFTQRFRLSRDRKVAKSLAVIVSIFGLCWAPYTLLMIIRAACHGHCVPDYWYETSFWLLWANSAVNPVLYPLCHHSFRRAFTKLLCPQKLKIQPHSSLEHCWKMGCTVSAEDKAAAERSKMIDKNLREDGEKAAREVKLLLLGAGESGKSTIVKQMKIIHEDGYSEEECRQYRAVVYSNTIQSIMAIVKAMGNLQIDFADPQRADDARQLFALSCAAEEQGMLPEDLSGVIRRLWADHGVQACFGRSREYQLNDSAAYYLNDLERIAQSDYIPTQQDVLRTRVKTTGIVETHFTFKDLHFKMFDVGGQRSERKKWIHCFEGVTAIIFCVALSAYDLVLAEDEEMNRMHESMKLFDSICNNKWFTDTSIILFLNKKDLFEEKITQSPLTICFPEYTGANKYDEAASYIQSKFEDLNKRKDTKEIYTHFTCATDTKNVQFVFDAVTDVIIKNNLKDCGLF
row,inhibition at 4 µM,SMILES
1,≥ 90%,"O=C(c1ccc(Cl)nc1)N1CCc2cnc(N3CCN(C4CCC4)CC3)nc2CC1 [Compound 478, 7-[(6-chloropyridin-3-yl)carbonyl]-2-(4-cyclobutylpiperazin-1-yl)-6,7,8,9-tetrahydro-5H-pyrimido[4,5-d]azepine]"
2,≥ 90%,"COc1cccc(/C=C/C(=O)N2CCc3cnc(N4CCN(C5CCC5)CC4)nc3CC2)c1 [Compound 564, 2-(4-cyclobutylpiperazin-1-yl)-7-[(2E)-3-(3-methoxyphenyl)prop-2-enoyl]-6,7,8,9-tetrahydro-5H-pyrimido[4,5-d]azepine]"
3,≥ 90%,"COc1cc(/C=C/C(=O)N2CCc3cnc(N4CCN(C5CCC5)CC4)nc3CC2)cc(OC)c1 [Compound 565, 2-(4-cyclobutylpiperazin-1-yl)-7-[(2E)-3-(3,5-dimethoxyphenyl)prop-2-enoyl]-6,7,8,9-tetrahydro-5H-pyrimido[4,5-d]azepine]"
4,≥ 90%,"O=C(c1cc(Cl)cc(Cl)c1)N1CCc2cnc(N3CCN(C4CCC4)CC3)nc2CC1 [Compound 398, 2-(4-cyclobutylpiperazin-1-yl)-7-(3,5-dichlorobenzoyl)-6,7,8,9-tetrahydro-5H-pyrimido[4,5-d]azepine]"
5,≥ 90%,"O=C(c1cccc(Cl)c1Cl)N1CCc2cnc(N3CCN(C4CCC4)CC3)nc2CC1 [Compound 440, 2-(4-cyclobutylpiperazin-1-yl)-7-(2,3-dichlorobenzoyl)-6,7,8,9-tetrahydro-5H-pyrimido[4,5-d]azepine]"
6,≥ 90%,"O=C(Cc1ccc(-c2ccccc2)cc1)N1CCc2cnc(N3CCN(C4CCC4)CC3)nc2CC1 [Compound 518, 7-(biphenyl-4-ylacetyl)-2-(4-cyclobutylpiperazin-1-yl)-6,7,8,9-tetrahydro-5H-pyrimido[4,5-d]azepine]"
7,≥ 90%,"COc1ccc(C(=O)N2CCc3cnc(N4CCN(C5CCC5)CC4)nc3CC2)c(Cl)c1OC [Compound 425, 7-(2-chloro-3,4-dimethoxybenzoyl)-2-(4-cyclobutylpiperazin-1-yl)-6,7,8,9-tetrahydro-5H-pyrimido[4,5-d]azepine]"

# Same assay, conditions: 1 h; assay of Example 8; symbol "!" in column headed Ki; read-out: percent inhibition of agonist-induced GTP-gammaS binding to H3
row,inhibition at 4 µM,SMILES
1,≥ 90%,"Cc1ccc(C(C(=O)N2CCc3cnc(N4CCN(C5CCC5)CC4)nc3CC2)c2ccccc2)cc1 (centres unmarked) [Compound 356, 2-(4-cyclobutylpiperazin-1-yl)-7-[(4-methylphenyl)(phenyl)acetyl]-6,7,8,9-tetrahydro-5H-pyrimido[4,5-d]azepine]"
2,≥ 90%,"CC(C)c1ccc(CN2CCc3cnc(N4CCN(C5CCC5)CC4)nc3CC2)cc1 [Compound 244, 2-(4-cyclobutylpiperazin-1-yl)-7-(4-isopropylbenzyl)-6,7,8,9-tetrahydro-5H-pyrimido[4,5-d]azepine]"
3,≥ 90%,"O=C(CC1CCCC1)N1CCc2cnc(N3CCN(C4CCC4)CC3)nc2CC1 [Compound 210, 2-(4-cyclobutylpiperazin-1-yl)-7-(cyclopentylacetyl)-6,7,8,9-tetrahydro-5H-pyrimido[4,5-d]azepine]"
4,≥ 90%,"c1cc(N2CCCC2)ccc1CN1CCc2cnc(N3CCN(C4CCC4)CC3)nc2CC1 [Compound 267, 2-(4-cyclobutylpiperazin-1-yl)-7-(4-pyrrolidin-1-ylbenzyl)-6,7,8,9-tetrahydro-5H-pyrimido[4,5-d]azepine]"
5,≥ 90%,"COc1cc(Br)c(/C=C/C(=O)N2CCc3cnc(N4CCN(C5CCC5)CC4)nc3CC2)cc1OC [Compound 588, 7-[(2E)-3-(2-bromo-4,5-dimethoxyphenyl)prop-2-enoyl]-2-(4-cyclobutylpiperazin-1-yl)-6,7,8,9-tetrahydro-5H-pyrimido[4,5-d]azepine]"
6,≥ 90%,"CC(C)c1ccc(C(=O)N2CCc3cnc(N4CCN(C5CCC5)CC4)nc3CC2)cc1 [Compound 205, 2-(4-cyclobutylpiperazin-1-yl)-7-(4-isopropylbenzoyl)-6,7,8,9-tetrahydro-5H-pyrimido[4,5-d]azepine]"
7,≥ 90%,"O=C(Cc1ccc2c(c1)OCO2)N1CCc2cnc(N3CCN(C4CCC4)CC3)nc2CC1 [Compound 277, 7-(1,3-benzodioxol-5-ylacetyl)-2-(4-cyclobutylpiperazin-1-yl)-6,7,8,9-tetrahydro-5H-pyrimido[4,5-d]azepine]"
8,≥ 90%,"O=C(/C=C/c1ccc(Cl)cc1Cl)N1CCc2cnc(N3CCN(C4CCC4)CC3)nc2CC1 [Compound 581, 2-(4-cyclobutylpiperazin-1-yl)-7-[(2E)-3-(2,4-dichlorophenyl)prop-2-enoyl]-6,7,8,9-tetrahydro-5H-pyrimido[4,5-d]azepine]"
9,≥ 90%,"O=C(Cc1ccccc1Oc1ccccc1)N1CCc2cnc(N3CCN(C4CCC4)CC3)nc2CC1 [Compound 304, 2-(4-cyclobutylpiperazin-1-yl)-7-[(2-phenoxyphenyl)acetyl]-6,7,8,9-tetrahydro-5H-pyrimido[4,5-d]azepine]"
10,≥ 90%,"COc1ccc(CC(=O)N2CCc3cnc(N4CCN(C5CCC5)CC4)nc3CC2)cc1 [Compound 274, 2-(4-cyclobutylpiperazin-1-yl)-7-[(4-methoxyphenyl)acetyl]-6,7,8,9-tetrahydro-5H-pyrimido[4,5-d]azepine]"
11,≥ 90%,"CCC(CC)(C(=O)N1CCc2cnc(N3CCN(C4CCC4)CC3)nc2CC1)c1ccccc1 [Compound 350, 2-(4-cyclobutylpiperazin-1-yl)-7-(2-ethyl-2-phenylbutanoyl)-6,7,8,9-tetrahydro-5H-pyrimido[4,5-d]azepine]"
12,≥ 90%,"O=C(C1CCCO1)N1CCc2cnc(N3CCN(C4CCC4)CC3)nc2CC1 (centres unmarked) [Compound 220, 2-(4-cyclobutylpiperazin-1-yl)-7-(tetrahydrofuran-2-ylcarbonyl)-6,7,8,9-tetrahydro-5H-pyrimido[4,5-d]azepine]"
13,≥ 90%,"O=C(Cc1cccc(Oc2ccccc2)c1)N1CCc2cnc(N3CCN(C4CCC4)CC3)nc2CC1 [Compound 282, 2-(4-cyclobutylpiperazin-1-yl)-7-[(3-phenoxyphenyl)acetyl]-6,7,8,9-tetrahydro-5H-pyrimido[4,5-d]azepine]"
14,≥ 90%,"c1cc2c(cc1CN1CCc3cnc(N4CCN(C5CCC5)CC4)nc3CC1)OCCO2 [Compound 258, 2-(4-cyclobutylpiperazin-1-yl)-7-(2,3-dihydro-1,4-benzodioxin-6-ylmethyl)-6,7,8,9-tetrahydro-5H-pyrimido[4,5-d]azepine]"

# Same assay, conditions: symbol ! in Ki; test compound 4 μM, 1 μM histamine; read-out: percent inhibition of agonist-induced GTP-gammaS binding to H3
row,inhibition at 4 µM,SMILES
1,≥ 90%,CC(C)c1ccc(CN2CCc3c(ncnc3N3CCN(C4CCC4)CC3)C2)cc1 [Compound 80]
2,≥ 90%,"COc1ccc(CN2CCc3nc(N4CCN(C5CCC5)CC4)ncc3C2)c(OC)c1 [Compound 624, 2-(4-cyclobutylpiperazin-1-yl)-6-(2,4-dimethoxybenzyl)-5,6,7,8-tetrahydropyrido[4,3-d]pyrimidine]"
3,≥ 90%,"c1ccc2ncc(CN3CCc4c(ncnc4N4CCN(C5CCC5)CC4)C3)cc2c1 [Compound 73, 4-(4-cyclobutylpiperazin-1-yl)-7-(quinolin-3-ylmethyl)-5,6,7,8-tetrahydropyrido[3,4-d]pyrimidine]"
4,≥ 90%,"Cc1ccc(CN2CCc3nc(N4CCN(C5CCC5)CC4)ncc3C2)cc1C [Compound 637, 2-(4-cyclobutylpiperazin-1-yl)-6-(3,4-dimethylbenzyl)-5,6,7,8-tetrahydropyrido[4,3-d]pyrimidine]"
5,≥ 90%,"CCCCN1CCc2c(ncnc2N2CCN(C3CCC3)CC2)C1 [Compound 83, 7-butyl-4-(4-cyclobutylpiperazin-1-yl)-5,6,7,8-tetrahydropyrido[3,4-d]pyrimidine]"
